Where a name gives a salt, the structure may show the parent alone.
Key:
[1] = biological target: T1, hD5-transfected CHO-Ga16 cells (Homo sapiens, UniProt P21918); assay: D5 assay, intracellular Ca2+ release (FLIPR); format: cell-based
T1 construct: expressed in transfected cells; host or cells: CHO-Ga16 cells

MPTP/AMPT mouse model = assay: Superiority model, hypomotility in the MPTP/AMPT mouse model; format: in vivo; conditions: for activity count (0.5-1.5 h): AMPT 250 mg/kg SC
Procedure: MPTP (1-methyl-4-phenyl-1,2,3,6-tetrahydropyridine) is a neurotoxin that causes permanent symptoms of Parkinson's disease by killing certain neurons in the substantia nigra of the brain. It is used to study the disease in monkeys and mice. […] Various compounds (all dosed subcutaneously) were tested for their ability to reverse the motility deficits produced in this model.

T1 sequence (P21918 whole entry): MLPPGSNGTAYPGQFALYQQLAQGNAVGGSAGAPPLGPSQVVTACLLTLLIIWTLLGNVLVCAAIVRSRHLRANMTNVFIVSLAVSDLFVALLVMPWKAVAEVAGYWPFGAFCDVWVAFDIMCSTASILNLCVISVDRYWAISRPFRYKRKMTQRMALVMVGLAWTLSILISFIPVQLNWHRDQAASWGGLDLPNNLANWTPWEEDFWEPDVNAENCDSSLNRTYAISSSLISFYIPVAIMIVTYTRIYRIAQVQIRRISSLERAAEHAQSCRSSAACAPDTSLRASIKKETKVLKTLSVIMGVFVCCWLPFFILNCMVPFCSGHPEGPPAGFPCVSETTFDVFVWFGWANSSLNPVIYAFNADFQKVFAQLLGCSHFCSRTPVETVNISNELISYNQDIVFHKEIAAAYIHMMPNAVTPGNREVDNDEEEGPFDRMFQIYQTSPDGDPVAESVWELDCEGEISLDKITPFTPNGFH

CCCN1CCC[C@@H]2Cc3c(ccc(O)c3O)C[C@H]21 [compound 10, (4aR,10aR)-1-n-Propyl-1,2,3,4,4a,5,10,10a-octahydro-benzo[g]quinoline-6,7-diol hydrobromide]
EC50 [1]: 60 pM | Emax ([1]; CHO-Ga16, read-out: intrinsic activity (efficacy)): 95% | reversal of motility deficits (MPTP/AMPT mouse model; MPTP/AMPT mice, all dosed subcutaneously): restored locomotion in the mice in a dose-dependent manner | activity count (0.5-1.5 h) (MPTP/AMPT mouse model; Table 4c, 0.003 mg/kg SC, controls: vehicle 405, AMPT/vehicle 12): 8 | activity count (0.5-1.5 h) (MPTP/AMPT mouse model; Table 4c, 0.01 mg/kg SC): 228 | activity count (0.5-1.5 h) (MPTP/AMPT mouse model; Table 4c, 0.03 mg/kg SC): 440 | activity count (0.5-1.5 h) (MPTP/AMPT mouse model; Table 4e direct comparison, apomorphine 1 mg/kg SC, pramipexole 1 mg/kg SC, compound 10 0.030 mg/kg SC, controls: vehicle 509, AMPT/vehicle 2): 690

Reference: patent US20120077836A1, “METHODS OF ADMINISTERING (4AR,10AR)-1-N-PROPYL-1,2,3,4,4A,5,10,10A-OCTAHYDROBENZO [G] QUINOLINE-6,7-DIOL AND RELATED COMPOUNDS ACROSS THE ORAL MUCOSA, THE NASAL MUCOSA OR THE SKIN AND PHARMACEUTICAL COMPOSITIONS THEREOF” (priority 2009, published 2012)
